Data set [1] in a line: Cytotoxicity, microtetrazolium test (MTT). Conditions: dog, MDCK cells, CC50 (MDCK), mean ±SD.

In brackets after ≈: the same amount, converted by molar mass.

A word on the melting point: it is the temperature of the solid-liquid transition. In turn, `CCOC(=O)c1c(N(Cc2ccccc2Cl)C(C)=O)sc2cc(O)ccc12` yielded a melting point of 176 to 180 °C.
As to `CCOC(=O)c1c(N(Cc2ccc(Cl)cc2)C(C)=O)sc2c(Cl)c(O)ccc12`, the melting point lay within 174 to 176 °C.
Turning to `CCOC(=O)c1c(N(Cc2ccc(Cl)cc2)C(C)=O)sc2cc(O)ccc12`, the melting point is 172 to 176 °C.
Still for that read-out and setting: the same measure for `CCOC(=O)c1c(N(Cc2ccc(C)cc2)C(C)=O)sc2c(Cl)c(O)ccc12`: 170 to 172 °C; for `CCOC(=O)c1c(N(Cc2ccc(C)cc2)C(C)=O)sc2cc(O)ccc12`: 145 to 147 °C.
On the same count and under the same terms, the same measure for `COC(=O)c1c(N(Cc2ccccc2Cl)C(C)=O)sc2c(Cl)c(O)ccc12`: 229 to 233 °C.
The same measure, in the same setting: the same measure for `COC(=O)c1c(N(Cc2ccc(C)cc2)C(C)=O)sc2c(Cl)c(O)ccc12`: 195 to 197 °C; for `COC(=O)c1c(N(Cc2ccc(C)cc2)C(C)=O)sc2cc(O)ccc12`: 160 to 164 °C.
In the case of `COC(=O)c1c(N(Cc2ccccc2C(F)(F)F)C(C)=O)sc2c(Cl)c(O)ccc12`, the melting point fell in the range of 182 to 186 °C.
On the same count and under the same terms, the same measure for `COC(=O)c1c(N(Cc2ccccc2C(F)(F)F)C(C)=O)sc2cc(O)ccc12`: 165 to 169 °C; for `CC(=O)N(Cc1ccc(F)cc1)c1sc2c(Cl)c(O)ccc2c1C(=O)O`: 220 to 224 °C; for `COC(=O)c1c(N(Cc2cccc(F)c2)C(C)=O)sc2cc(O)ccc12`: 145 to 150 °C.
The same measure, in the same setting: the same measure for `COC(=O)c1c(N(Cc2cccc3ccccc23)C(C)=O)sc2c(Cl)c(O)ccc12`: 210 to 212 °C.
Same read-out and setting: the same measure for `COC(=O)c1c(N(Cc2ccc3ccccc3c2)C(C)=O)sc2cc(O)ccc12`: 200 to 202 °C; for `COC(=O)c1c(N(CCc2ccccc2)C(C)=O)sc2c(Cl)c(O)ccc12`: 150 to 155 °C; for `COC(=O)c1c(N(Cc2ccccc2C)C(C)=O)sc2c(Cl)c(O)ccc12`: 182 to 184 °C.
As for `COC(=O)c1c(N(Cc2ccccc2C)C(C)=O)sc2cc(O)ccc12`, the melting point was in the range of 164 to 168 °C.
On the same count and under the same terms, the same measure for `COC(=O)c1c(N(Cc2ccccc2C#N)C(C)=O)sc2c(Cl)c(O)ccc12`: 204 to 208 °C; for `COC(=O)c1c(N(Cc2ccccc2C#N)C(C)=O)sc2cc(O)ccc12`: 168 to 172 °C; for `COC(=O)c1c(N(CCc2ccccc2F)C(C)=O)sc2c(Cl)c(O)ccc12`: 172 to 174 °C.
Same read-out and setting: the same measure for `COC(=O)c1c(N(CCc2ccccc2F)C(C)=O)sc2cc(O)ccc12`: 183 to 185 °C.
Still for that read-out and setting: the same measure for `CC(=O)N(Cc1ccccc1)c1sc2c(Cl)c(O)ccc2c1C#N`: 176 to 178 °C; for `COC(=O)c1c(N(Cc2ccc(F)cc2)C(C)=O)sc2c(CN(C)C)c(O)ccc12`: 145 to 149 °C; for `CC(=O)N(Cc1ccccc1)c1sc2cc(O)ccc2c1C(=O)OC(C)(C)C`: 185 to 190 °C.
Molecule `CC(=O)N(Cc1ccccc1F)c1sc2c(Cl)c(O)ccc2c1C(=O)O` had a melting point of 230 to 234 °C.
Same read-out and setting: the same measure for `CC(=O)N(Cc1ccccc1F)c1sc2cc(O)ccc2c1C(=O)O`: 140 to 145 °C; for `CNC(=O)c1c(N(Cc2ccccc2)C(C)=O)sc2c(CN(C)C)c(O)ccc12`: 145 to 147 °C.
The CC50 is the concentration giving 50% cytotoxicity. Lower therefore signals harm at low concentration. The molecule `CCOC(=O)c1c(N(Cc2ccccc2)C(C)=O)sc2c(Cl)c(O)ccc12` [Example 1, Ethyl 2-[acetyl(benzyl)amino]-7-chloro-6-hydroxy-1-benzothiophene-3-carboxylate] registered a melting point of 151 to 155 °C. The molecule further yielded a CC50 at 48 h in data set [1] of over 300 µg/mL.
Taken in the same sequence, the figures for `CCOC(=O)c1c(N(Cc2ccccc2)C(C)=O)sc2cc(O)ccc12` [Example 2, Ethyl 2-[acetyl(benzyl)amino]-6-hydroxy-1-benzothiophene-3-carboxylate] were 146 to 148 °C and 11.7 ± 0.6 µg/mL (≈ 31.7 µM).
Molecule `COC(=O)c1c(N(Cc2ccccc2)C(C)=O)sc2c(Cl)c(O)ccc12` [Example 3, Methyl 2-[acetyl(benzyl)amino]-7-chloro-6-hydroxy-1-benzothiophene-3-carboxylate] showed a CC50 at 48 h in data set [1] of 4.5 ± 0.3 µg/mL (≈ 11.5 µM).
In turn, `CC(=O)N(Cc1ccccc1)c1sc2c(Cl)c(O)ccc2c1C(=O)OC(C)(C)C` [Example 5, Tert-butyl 2-[acetyl(benzyl)amino]-7-chloro-6-hydroxy-1-benzothiophene-3-carboxylate] showed a melting point of 200 to 205 °C. The same molecule registered a half-maximal cytotoxic concentration (CC50) at 48 h in data set [1] of 4.1 ± 0.2 µg/mL (≈ 9.49 µM).
In the same order, the values of `CC(=O)N(Cc1ccccc1)c1sc2c(Cl)c(O)ccc2c1C(=O)OC(C)C` [Example 7, Isopropyl 2-[acetyl(benzyl)amino]-7-chloro-6-hydroxy-1-benzothiophene-3-carboxylate] are 164 to 168 °C and 2.2 ± 0.3 µg/mL (≈ 5.26 µM).
In the same order, the values of `CC(=O)N(Cc1ccccc1)c1sc2cc(O)ccc2c1C(=O)OC(C)C` [Example 8, Isopropyl 2-[acetyl(benzyl)amino]-6-hydroxy-1-benzothiophene-3-carboxylate] are 126 to 130 °C and 13.9 ± 1.1 µg/mL (≈ 36.2 µM).
The molecule `CCOC(=O)c1c(N(Cc2ccccc2Cl)C(C)=O)sc2c(Cl)c(O)ccc12` [Example 9, Ethyl 2-[acetyl(2-chlorobenzyl)amino]-7-chloro-6-hydroxy-1-benzothiophene-3-carboxylate] showed a melting point of 174 to 178 °C. The CC50 at 48 h in data set [1] is 8.3 ± 0.3 µg/mL (≈ 18.9 µM).
In the same order, the values of `COC(=O)c1c(N(Cc2ccccc2Cl)C(C)=O)sc2cc(O)ccc12` [Example 16, Methyl 2-[acetyl(2-chlorobenzyl)amino]-6-hydroxy-1-benzothiophene-3-carboxylate] are 220 to 224 °C and 21 µg/mL (≈ 53.9 µM).
Regarding `COC(=O)c1c(N(Cc2ccc(C(F)(F)F)cc2)C(C)=O)sc2c(Cl)c(O)ccc12` [Example 21, Methyl 2-[acetyl(4-trifluoromethylbenzyl)amino]-7-chloro-6-hydroxy-1-benzothiophene-3-carboxylate], the melting point was in the range of 176 to 180 °C. Moreover, half-maximal cytotoxicity in data set [1] (CC50 at 48 h) was put at 5.6 ± 0.2 µg/mL (≈ 12.2 µM).
Taken in the same sequence, the figures for `COC(=O)c1c(N(Cc2ccc(C(F)(F)F)cc2)C(C)=O)sc2cc(O)ccc12` [Example 22, Methyl 2-[acetyl(4-trifluoromethylbenzyl)amino]-6-hydroxy-1-benzothiophene-3-carboxylate] were 171 to 175 °C and 3.2 ± 0.8 µg/mL (≈ 7.56 µM).
Taken in the same sequence, the figures for `COC(=O)c1c(N(Cc2ccccc2F)C(C)=O)sc2cc(O)ccc12` [Example 24, Methyl 2-[acetyl(2-fluorobenzyl)amino]-6-hydroxy-1-benzothiophene-3-carboxylate] were 165 to 167 °C and over 300 µg/mL.
Regarding `COC(=O)c1c(N(Cc2cccc(F)c2)C(C)=O)sc2c(Cl)c(O)ccc12` [Example 25, Methyl 2-[acetyl(3-fluorobenzyl)amino]-7-chloro-6-hydroxy-1-benzothiophene-3-carboxylate], the melting point was 152 to 155 °C. For the same molecule, in data set [1], the midpoint of cytotoxicity, the CC50 at 48 h, lay at 25.5 ± 2.7 µg/mL (≈ 62.5 µM).
In the same order, the values of `COC(=O)c1c(N(Cc2ccc(F)cc2)C(C)=O)sc2c(Cl)c(O)ccc12` [Example 27, Methyl 2-[acetyl(4-fluorobenzyl)amino]-7-chloro-6-hydroxy-1-benzothiophene-3-carboxylate] are 233 to 235 °C and 39.8 ± 2.5 µg/mL (≈ 97.6 µM).
Taken in the same sequence, the figures for `COC(=O)c1c(N(Cc2ccc(F)cc2)C(C)=O)sc2cc(O)ccc12` [Example 28, Methyl 2-[acetyl(4-fluorobenzyl)amino]-6-hydroxy-1-benzothiophene-3-carboxylate] were 198 to 202 °C and 240 ± 19 µg/mL (≈ 643 µM).
In the case of `COC(=O)c1c(N(Cc2ccc(F)cc2F)C(C)=O)sc2c(Cl)c(O)ccc12` [Example 29, Methyl 2-[acetyl(2,4-difluorobenzyl)amino]-7-chloro-6-hydroxy-1-benzothiophene-3-carboxylate], the melting point is 205 to 210 °C. In data set [1], this molecule returned a CC50 at 48 h of over 300 µg/mL.
Taken in the same sequence, the figures for `COC(=O)c1c(N(Cc2ccc(F)cc2F)C(C)=O)sc2cc(O)ccc12` [Example 30, Methyl 2-[acetyl(2,4-difluorobenzyl)amino]-6-hydroxy-1-benzothiophene-3-carboxylate] were 178 to 180 °C and over 300 µg/mL.
Taken in the same sequence, the figures for `COC(=O)c1c(N(Cc2cccc3ccccc23)C(C)=O)sc2cc(O)ccc12` [Example 32, Methyl 2-[acetyl(1-naphthylmethyl)amino]-6-hydroxy-1-benzothiophene-3-carboxylate] were 198 to 202 °C and over 300 µg/mL.
Take `COC(=O)c1c(N(Cc2ccc3ccccc3c2)C(C)=O)sc2c(Cl)c(O)ccc12` [Example 33, Methyl 2-[acetyl(2-naphthylmethyl)amino]-7-chloro-6-hydroxy-1-benzothiophene-3-carboxylate]: the melting point was 185 to 190 °C. The midpoint of cytotoxicity in data set [1], the CC50 at 48 h, lay at 3.7 ± 0.4 µg/mL (≈ 8.41 µM).
`COC(=O)c1c(N(CCc2ccccc2)C(C)=O)sc2cc(O)ccc12` [Example 36, Methyl 2-[acetyl(2-phenylethyl)amino]-6-hydroxy-1-benzothiophene-3-carboxylate] yielded a melting point of 190 to 194 °C. The molecule also returned a CC50 at 48 h in data set [1] of over 300 µg/mL.
Taken in the same sequence, the figures for `COC(=O)c1c(N(C(C)=O)C(C)c2ccccc2)sc2c(Cl)c(O)ccc12` (stereo not drawn) [Example 37, Methyl 2-[acetyl(1-phenylethyl)amino]-7-chloro-6-hydroxy-1-benzothiophene-3-carboxylate] were 195 to 200 °C and 24.5 ± 2.2 µg/mL (≈ 60.7 µM).
Taken in the same sequence, the figures for `COC(=O)c1c(N(C(C)=O)C(C)c2ccccc2)sc2cc(O)ccc12` (stereo not drawn) [Example 38, Methyl 2-[acetyl(1-phenylethyl)amino]-6-hydroxy-1-benzothiophene-3-carboxylate] were 152 to 157 °C and 30 µg/mL (≈ 81.2 µM).
In turn, `CC(=O)N(Cc1ccccc1)c1sc2cc(O)ccc2c1C#N` [Example 47, N-benzyl-N-(3-cyano-6-hydroxy-1-benzothiophene-2-yl)acetamide] yielded a half-maximal cytotoxic concentration (CC50) at 48 h in data set [1] of 16.8 ± 1.5 µg/mL (≈ 52.1 µM).

The values are drawn from patent publication US20240174629A1 (OTCPHARM JSC, priority 2021, published 2024).
